Measured values as given in US9168259B2 (GRÜNENTHAL GMBH, priority 2010, dated 2015).

Molecular target: T1, KCNQ2/3 channels (Homo sapiens, UniProt O43525+O43526)
T1 construct: expressed in transfected cells
Experiment: Fluorescence assay using a voltage sensitive dye (fluorimetry)
Format: cell-based
Conditions: CHO-K1 cells expressing KCNQ2/3; for Emax: CHO-K1, plateau effect relative to saturated retigabine (50 μM) = 100%, negative values = antagonistic, read-out: Fluorimetry % efficacy (retigabine = 100%); for EC50: IC50 where % efficacy is negative, read-out: Fluorimetry EC50/IC50

T1 sequence (O43526 whole entry): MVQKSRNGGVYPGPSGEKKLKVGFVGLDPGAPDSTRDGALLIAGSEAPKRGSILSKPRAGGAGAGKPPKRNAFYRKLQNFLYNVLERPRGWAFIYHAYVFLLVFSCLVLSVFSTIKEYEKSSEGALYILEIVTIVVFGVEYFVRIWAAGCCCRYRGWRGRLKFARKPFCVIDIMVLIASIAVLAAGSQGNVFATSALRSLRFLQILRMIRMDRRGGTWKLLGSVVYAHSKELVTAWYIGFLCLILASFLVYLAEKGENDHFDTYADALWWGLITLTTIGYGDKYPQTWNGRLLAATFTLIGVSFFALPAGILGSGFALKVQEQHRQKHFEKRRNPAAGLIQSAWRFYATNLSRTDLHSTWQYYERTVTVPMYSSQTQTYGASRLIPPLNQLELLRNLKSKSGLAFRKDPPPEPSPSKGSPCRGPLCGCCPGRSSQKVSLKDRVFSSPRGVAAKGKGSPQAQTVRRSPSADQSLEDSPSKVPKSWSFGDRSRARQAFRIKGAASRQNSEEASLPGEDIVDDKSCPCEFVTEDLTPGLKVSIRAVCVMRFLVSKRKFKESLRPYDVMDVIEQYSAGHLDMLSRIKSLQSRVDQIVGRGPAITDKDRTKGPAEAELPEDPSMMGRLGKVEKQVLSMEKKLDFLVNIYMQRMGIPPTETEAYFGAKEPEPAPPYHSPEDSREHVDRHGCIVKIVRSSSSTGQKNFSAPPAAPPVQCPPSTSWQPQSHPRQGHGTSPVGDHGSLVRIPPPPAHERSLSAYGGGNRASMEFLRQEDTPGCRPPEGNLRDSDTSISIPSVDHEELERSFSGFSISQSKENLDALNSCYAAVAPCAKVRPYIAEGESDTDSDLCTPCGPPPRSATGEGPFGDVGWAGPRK
T1 sequence (O43525 whole entry): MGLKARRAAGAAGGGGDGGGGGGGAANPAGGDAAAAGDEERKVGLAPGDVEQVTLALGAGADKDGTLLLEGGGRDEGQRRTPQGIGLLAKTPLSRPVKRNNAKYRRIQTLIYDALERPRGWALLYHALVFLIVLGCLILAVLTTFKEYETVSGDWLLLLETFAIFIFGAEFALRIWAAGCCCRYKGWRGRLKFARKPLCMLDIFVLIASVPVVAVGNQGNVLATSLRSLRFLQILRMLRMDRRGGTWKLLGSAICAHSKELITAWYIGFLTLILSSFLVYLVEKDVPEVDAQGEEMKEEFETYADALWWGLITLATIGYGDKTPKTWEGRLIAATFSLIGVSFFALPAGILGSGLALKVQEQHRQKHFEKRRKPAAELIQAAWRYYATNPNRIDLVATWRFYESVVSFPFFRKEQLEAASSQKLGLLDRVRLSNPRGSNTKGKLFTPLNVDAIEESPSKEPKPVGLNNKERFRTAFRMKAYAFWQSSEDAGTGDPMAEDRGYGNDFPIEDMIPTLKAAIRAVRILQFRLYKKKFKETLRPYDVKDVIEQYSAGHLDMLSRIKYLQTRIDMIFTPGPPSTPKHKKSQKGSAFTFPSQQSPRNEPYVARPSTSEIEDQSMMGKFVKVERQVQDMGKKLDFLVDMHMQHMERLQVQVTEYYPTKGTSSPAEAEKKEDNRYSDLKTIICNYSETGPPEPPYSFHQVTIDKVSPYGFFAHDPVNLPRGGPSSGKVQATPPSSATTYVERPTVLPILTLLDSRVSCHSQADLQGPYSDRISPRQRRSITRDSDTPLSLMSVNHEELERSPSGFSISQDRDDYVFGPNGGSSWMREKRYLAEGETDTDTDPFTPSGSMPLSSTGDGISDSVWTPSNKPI

| Emax [%] | EC50 [nM] | Compound |
| --- | --- | --- |
| 197 | 24 | Cc1cc(N2CCOC[C@H]2C)nc(C(C)C)c1C(=O)NCc1ccc(F)cc1 [Example 169, N-[(4-Fluorophenyl)-methyl]-2-isopropyl-4-methyl-6-[(3R)-3-methyl-morpholin-4-yl]-pyridine-3-carboxylic acid amide] |
| 246 | 378 | Cc1cc(N2CCOC[C@H]2C)nc(N(C)C)c1C(=O)NCc1ccc(F)cc1 [Example 172, 2-Dimethylamino-N-[(4-fluorophenyl)-methyl]-4-methyl-6-[(3R)-3-methyl-morpholin-4-yl]-pyridine-3-carboxylic acid amide] |
| 259 | 201 | CCN(C)c1nc(N2CCOC[C@H]2C)cc(C)c1C(=O)NCc1ccc(F)cc1 [Example 173, 2-(Ethyl-methyl-amino)-N-[(4-fluorophenyl)-methyl]-4-methyl-6-[(3R)-3-methyl-morpholin-4-yl]-pyridine-3-carboxylic acid amide] |
| 215 | 136 | CSc1nc(N2CCOC[C@H]2C)cc(C)c1C(=O)NCc1ccc(F)cc1 [Example 176, N-[(4-Fluorophenyl)-methyl]-4-methyl-6-[(3R)-3-methyl-morpholin-4-yl]-2-methylsulfanyl-pyridine-3-carboxylic acid amide] |
| 174 | 97 | CCSc1nc(N2CCOC[C@H]2C)cc(C)c1C(=O)NCc1ccc(F)cc1 [Example 177, 2-Ethylsulfanyl-N-[(4-fluorophenyl)-methyl]-4-methyl-6-[(3R)-3-methyl-morpholin-4-yl]-pyridine-3-carboxylic acid amide] |
| 147 | 54 | CCSc1nc(N2CCOCC2CC)cc(C)c1C(=O)NCc1cccc(F)c1 (centres unmarked) [Example 178, 6-(3-Ethyl-morpholin-4-yl)-2-ethylsulfanyl-N-[(3-fluorophenyl)-methyl]-4-methyl-pyridine-3-carboxylic acid amide] |
| 123 | 86 | CCSc1nc(N2CCOC[C@@H]2COC)cc(C)c1C(=O)NCc1cccc(F)c1 [Example 180, 2-Ethylsulfanyl-N-[(3-fluorophenyl)-methyl]-6-[(3S)-3-(methoxymethyl)-morpholin-4-yl]-4-methyl-pyridine-3-carboxylic acid amide] |
| 167 | 255 | COc1nc(N2CCOC[C@H]2C)cc(C)c1C(=O)NCc1ccc(F)cc1 [Example 181, N-[(4-Fluorophenyl)-methyl]-2-methoxy-4-methyl-6-[(3R)-3-methyl-morpholin-4-yl]-pyridine-3-carboxylic acid amide] |
| 146 | 125 | CCOc1nc(N2CCOC[C@H]2C)cc(C)c1C(=O)NCc1ccc(F)cc1 [Example 182, 2-Ethoxy-N-[(4-fluorophenyl)-methyl]-4-methyl-6-[(3R)-3-methyl-morpholin-4-yl]-pyridine-3-carboxylic acid amide] |
| 189 | 31 | CCC(C)c1nc(N2CCOC[C@H]2C)cc(C)c1C(=O)NCc1ccc(F)cc1 (stereo partly drawn) [Example 194, N-[(4-Fluorophenyl)-methyl]-4-methyl-6-[(3R)-3-methyl-morpholin-4-yl]-2-(1-methyl-propyl)-pyridine-3-carboxylic acid amide] |
| 197 | 103 | Cc1cc(N2CCOC[C@H]2C)nc(C2CC2)c1C(=O)NCc1ccc(F)cc1 [Example 196, 2-Cyclopropyl-N-[(4-fluorophenyl)-methyl]-4-methyl-6-[(3R)-3-methyl-morpholin-4-yl]-pyridine-3-carboxylic acid amide] |
| 211 | 142 | CCCc1nc(N2CCOC[C@H]2C)cc(C)c1C(=O)NCc1ccc(F)cc1 [Example 197, N-[(4-Fluorophenyl)-methyl]-4-methyl-6-[(3R)-3-methyl-morpholin-4-yl]-2-propyl-pyridine-3-carboxylic acid amide] |

The remaining lines, values behind:

| Compound | Emax [%] | EC50 [nM] |
| --- | --- | --- |
| CCSc1nc(N(C)c2ccccn2)cc(C)c1C(=O)NCc1cccc(F)c1 [Example 170, 2-Ethylsulfanyl-N-[(3-fluorophenyl)-methyl]-4-methyl-6-(methyl-pyridin-2-yl-amino)-pyridine-3-carboxylic acid amide] | 84 | 1240 |
| CCSc1nc(N(C)c2cccnc2)cc(C)c1C(=O)NCc1cccc(F)c1 [Example 171, 2-Ethylsulfanyl-N-[(3-fluorophenyl)-methyl]-4-methyl-6-(methyl-pyridin-3-yl-amino)-pyridine-3-carboxylic acid amide] | 62 | 1940 |
| CCN(C)c1nc(N2CCOCC2)cc(C)c1C(=O)NCc1ccc(F)cc1 [Example 174, 2-(Ethyl-methyl-amino)-N-[(4-fluorophenyl)-methyl]-4-methyl-6-morpholin-4-yl-pyridine-3-carboxylic acid amide] | 221 | 422 |
| CCSc1nc(N(C)CC2CCCOC2)cc(C)c1C(=O)NCc1cccc(F)c1 (centres unmarked) [Example 175, 2-Ethylsulfanyl-N-[(3-fluorophenyl)-methyl]-4-methyl-6-[methyl-(tetrahydro-pyran-3-yl-methyl)-amino]-pyridine-3-carboxylic acid amide] | 114 | 870 |
| CCSc1nc(N2CCOC[C@H]2COC)cc(C)c1C(=O)NCc1cccc(F)c1 [Example 179, 2-Ethylsulfanyl-N-[(3-fluorophenyl)-methyl]-6-[(3R)-3-(methoxymethyl)-morpholin-4-yl]-4-methyl-pyridine-3-carboxylic acid amide] | 190 | 243 |
| Cc1cc(N2CCOC[C@H]2C)nc(N(C)C)c1C(=O)NCCCC(C)(C)C [Example 183, 2-Dimethylamino-N-(4,4-dimethyl-pentyl)-4-methyl-6-[(3R)-3-methyl-morpholin-4-yl]-pyridine-3-carboxylic acid amide] | 221 | 168 |
| CCN(C)c1nc(N2CCOC[C@H]2C)cc(C)c1C(=O)NCCCC(C)(C)C [Example 184, N-(4,4-Dimethyl-pentyl)-2-(ethyl-methyl-amino)-4-methyl-6-[(3R)-3-methyl-morpholin-4-yl]-pyridine-3-carboxylic acid amide] | 228 | 221 |
| Cc1cc(N2CCOC[C@H]2C)nc(C(C)C)c1C(=O)NCCCC(C)(C)C [Example 185, N-(4,4-Dimethyl-pentyl)-2-isopropyl-4-methyl-6-[(3R)-3-methyl-morpholin-4-yl]-pyridine-3-carboxylic acid amide] | 238 | 15 |
| COc1nc(N2CCOC[C@H]2C)cc(C)c1C(=O)NCCCC(C)(C)C [Example 186, N-(4,4-Dimethyl-pentyl)-2-methoxy-4-methyl-6-[(3R)-3-methyl-morpholin-4-yl]-pyridine-3-carboxylic acid amide] | 240 | 63 |
| CCOc1nc(N2CCOC[C@H]2C)cc(C)c1C(=O)NCCCC(C)(C)C [Example 187, N-(4,4-Dimethyl-pentyl)-2-ethoxy-4-methyl-6-[(3R)-3-methyl-morpholin-4-yl]-pyridine-3-carboxylic acid amide] | 242 | 49 |
| CCN(C)c1nc(N2CCOCC2)cc(C)c1C(=O)NCc1ccc(C(F)(F)F)cc1 [Example 188, 2-(Ethyl-methyl-amino)-4-methyl-6-morpholin-4-yl-N-[[4-(trifluoromethyl)-phenyl]-methyl]pyridine-3-carboxylic acid amide] | 154 | 343 |
| CCN(C)c1nc(N2CCOCC2)cc(C)c1C(=O)NCCCC(C)(C)C [Example 189, N-(4,4-Dimethyl-pentyl)-2-(ethyl-methyl-amino)-4-methyl-6-morpholin-4-yl-pyridine-3-carboxylic acid amide] | 225 | 284 |
| CCN(C)c1nc(N2CCOCC2)cc(C)c1C(=O)NCCCC(F)(F)F [Example 190, 2-(Ethyl-methyl-amino)-4-methyl-6-morpholin-4-yl-N-(4,4,4-trifluoro-butyl)-pyridine-3-carboxylic acid amide] | 207 | 2500 |
| CCN(C)c1nc(N2CCOCC2)cc(C)c1C(=O)NCc1ccc(Cl)cc1 [Example 191, N-[(4-Chlorophenyl)-methyl]-2-(ethyl-methyl-amino)-4-methyl-6-morpholin-4-yl-pyridine-3-carboxylic acid amide] | 214 | 265 |
| CSc1nc(N2CCOC[C@H]2C)cc(C)c1C(=O)NCCCC(C)(C)C [Example 192, N-(4,4-Dimethyl-pentyl)-4-methyl-6-[(3R)-3-methyl-morpholin-4-yl]-2-methylsulfanyl-pyridine-3-carboxylic acid amide] | 236 | 46 |
| CCSc1nc(N2CCOC[C@H]2C)cc(C)c1C(=O)NCCCC(C)(C)C [Example 193, N-(4,4-Dimethyl-pentyl)-2-ethylsulfanyl-4-methyl-6-[(3R)-3-methyl-morpholin-4-yl]-pyridine-3-carboxylic acid amide] | 246 | 29 |
| CCC(C)c1nc(N2CCOC[C@H]2C)cc(C)c1C(=O)NCCCC(C)(C)C (stereo partly drawn) [Example 195, N-(4,4-Dimethyl-pentyl)-4-methyl-6-[(3R)-3-methyl-morpholin-4-yl]-2-(1-methyl-propyl)-pyridine-3-carboxylic acid amide] | 242 | 13 |
| Cc1cc(N2CCOC[C@H]2C)nc(C2CC2)c1C(=O)NCCCC(C)(C)C [Example 198, 2-Cyclopropyl-N-(4,4-dimethyl-pentyl)-4-methyl-6-[(3R)-3-methyl-morpholin-4-yl]-pyridine-3-carboxylic acid amide] | 246 | 19 |
| CCCc1nc(N2CCOC[C@H]2C)cc(C)c1C(=O)NCCCC(C)(C)C [Example 199, N-(4,4-Dimethyl-pentyl)-4-methyl-6-[(3R)-3-methyl-morpholin-4-yl]-2-propyl-pyridine-3-carboxylic acid amide] | 232 | 50 |
